13 compounds from PubChem BioAssay (NCI) can be followed below.

Common to all, as to assay: NCI-60 cell line screen, 48 h
In assay [1] the test system is SK-MEL-28 melanoma.
Assay [2] relates to CAKI-1 renal.
Assay [3] has as its system UO-31 renal.
For assay [4], the system named is KM12 colon.
Assay [5] has as its system DU-145 prostate.
Assay [6] concerns MDA-MB-231 breast.
Assay [7] concerns RXF 393 renal.
Assay [8] concerns HS 578T breast.
Assay [9] concerns HOP-92 NSCLC.
Assay [10] concerns CCRF-CEM leukemia.

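Method: 48-hour compound exposure of cells in 96-well plates, five concentrations, linear interpolation of endpoints. GI50 marks 50% less growth. Definition used: TGI = concentration required for complete inhibition of growth.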 A value given as a limit tells only on which side of the number the result lay.

Regarding `CC(CO)(Nc1ccc([N+](=O)[O-])cc1[N+](=O)[O-])C(=O)O` (stereo not drawn), the TGI was 43.5 µM in assay [1]; 89.8 µM in assay [2]; 37.4 µM in [3]; > 100 µM in [4]; 48.9 µM in [5]; > 100 µM in assay [6]. Also, the TGI in assay [7] amounted to 24.6 µM; in [8], 46.3 µM.
In the case of `COc1cc(-c2nn(-c3cccc(NC(=O)CCN4CCN(Cc5ccccc5)CC4)c3)cc2-c2ccncc2)ccc1Cl`, the GI50 in assay [1] is 1.33 µM; in assay [3], 0.887 µM; in [4], 0.583 µM; in [5] it was 1.56 µM; in assay [6], 1.64 µM; in assay [9], 0.79 µM. In addition, the GI50 in [7] was 0.705 µM; in assay [10] it was 0.691 µM; in assay [8], 1.02 µM. In addition, the TGI in assay [1] came to 2.84 µM; in assay [3] it was 6.56 µM; in [4], 3.86 µM; in assay [5], 10.9 µM; in assay [6], 3.71 µM; in assay [9], 4.44 µM. In addition, the TGI in assay [7] was 2.28 µM; in [10], > 100 µM; in assay [8] it was 4.34 µM.
Take `CNNC(=NS(=O)(=O)c1cc(C#N)c(NNC)cc1S)NNC`: the TGI in assay [1], in assay [2], in [3], in assay [4], in [5] and in assay [9] was > 10 µM in each case. Besides, the TGI in assay [7], in [10] and in assay [8] was > 10 µM each time.
On to `N#CCN1C(=O)c2cc([N+](=O)[O-])cc3cc([N+](=O)[O-])cc(c23)C1=O`, for which the TGI in assay [1] was > 52.8 µM; in assay [2], 96.6 µM; in [3] it was 32 µM; in [4], 28 µM; in [9], 32.5 µM; in [7], 21.3 µM. In addition, the TGI in [10] came to 17.7 µM.
For the compound `C/C(=N\O)c1cccc(Nc2cc(-n3ccnc3)c3ccccc3n2)c1`, the GI50 in [1] is 14.3 µM; in assay [2], 11.2 µM; in assay [3], 13.8 µM; in assay [4] it was 10.5 µM; in [5], 18.9 µM; in assay [6], 6.26 µM. Besides, the figures for the GI50 in assay [9], in [10] and in assay [8] were 30.2 µM, 24.9 µM and 17.2 µM, respectively. In addition, the TGI in assay [1] came out at 29.8 µM; in assay [2], 32.9 µM; in [3] it was 34.6 µM; in [4], 31.8 µM; in assay [5] it was 35.8 µM; in [6] it was 24 µM. Further, the TGI in assay [9] worked out at 92.1 µM; in assay [10], 64.5 µM; in assay [8] it was 60.9 µM.
As to `COc1ccc(-c2cc(=O)c3c(O)cccc3o2)c(OC)c1OC`, the TGI in assay [1], in assay [2], in assay [4], in assay [9], in [7] and in assay [10] was > 100 µM in each case.
With `O=C(O)CCNS(=O)(=O)c1ccc([N+](=O)[O-])cc1`, the TGI in [1], in [2], in assay [3], in assay [4], in assay [9] and in [7] was > 100 µM in each case. Further, the TGI in assay [10] is > 100 µM.
Regarding `CC(C)C[C@H](NC(=O)CCn1ccc2ccccc2c1=O)B(O)O`, the GI50 in assay [1] is 3.27 µM; in [2], 2.93 µM; in [3] it was 3.92 µM; in [4], 7.51 µM; in [5], 9.13 µM; in assay [6] it was 9.45 µM. Further, the GI50 is 10.9 µM in assay [9], 2.02 µM in [10] and 3.63 µM in assay [8]. Further, the TGI in assay [1] was > 100 µM; in assay [2] it was 27 µM; in assay [3], 35.3 µM; in assay [4] it was 29.8 µM; in [5] it was > 100 µM; in [6], 59.3 µM. The values for the TGI in assay [9], in assay [10] and in [8] were 67.1 µM, 25.4 µM and 48.7 µM, respectively.
On to `C1CSCCSCCCSCCSCCCSCCSCCCSCCSC1`, for which the TGI in assay [1], in [2], in [3], in assay [4], in assay [5] and in assay [9] was > 100 µM throughout. Moreover, the TGI in assay [7], in assay [10] and in [8] was > 100 µM each time.
`N#CNc1nc(N)c(-c2ccc(Cl)cc2)c(C(=O)Nc2nccs2)n1`: the TGI in assay [1], in [2], in [3], in [4], in [9] and in assay [7] was > 100 µM throughout.
Regarding `Cn1ccnc1Oc1ccc(Cl)cc1`, the TGI in [1] is 27.4 µM; in [3], 23.9 µM; in [5], 30.7 µM; in [6], 37.4 µM; in assay [9] it was 24.4 µM; in assay [7], 37.1 µM. The TGI in assay [8] was found to be 66.1 µM.
Take `C[n+]1c2ccccc2nc2c(N)cc(N)cc21`: the GI50 in assay [1] was 10.3 µM; in [2] it was 0.519 µM; in assay [3], 26.2 µM; in assay [4] it was 13.7 µM; in assay [5], 16 µM; in assay [6], 21.7 µM. Also, the GI50 in assay [9] was 35.4 µM; in assay [10] it was 4.63 µM; in [8], 3.63 µM. The TGI in [1] is 24.1 µM; in [2] it was 19 µM; in [3], > 100 µM; in assay [4], > 100 µM; in assay [5] it was > 100 µM; in assay [6], > 100 µM. The TGI in [9] is > 100 µM; in assay [10] it was 48.3 µM; in [8], 20.6 µM.
Consider `Cc1ccc(NC(=O)C(=O)C(C(=O)/C=C/c2ccccc2)C2OC(=O)c3ccccc32)c(C)c1` (stereo not drawn), for which the TGI in assay [1], in assay [2], in assay [3], in assay [4], in assay [9] and in [7] was > 100 µM in each case. Also, the TGI in assay [10] was > 100 µM.
